Experimental data: ChEMBL document CHEMBL3414487, “Synthesis and biological activity of salinomycin conjugates with floxuridine” (Eur J Med Chem, 2015)
pIC50: −log10 of the molar value. In brackets after ≈: the same amount, converted by molar mass. Blank lines part the entries; values can stand above or below the compound they belong to.

What was measured:
Staphylococcus aureus [1] = assay: Antimicrobial activity against Staphylococcus aureus […] 4163 after 18 hrs by two-fold serial microdilution method; type: functional
Staphylococcus aureus [2] = assay: Antimicrobial activity against Staphylococcus aureus ATCC 6538 after 18 hrs by two-fold serial microdilution method; type: functional; details: ATCC 6538, 18 h
[3] = tested on: Staphylococcus epidermidis; assay: Antimicrobial activity against Staphylococcus epidermidis ATCC 12228 after 18 hrs by two-fold serial microdilution method; type: functional; details: ATCC 12228, 18 h
Staphylococcus aureus [4] = assay: Antimicrobial activity against methicillin-resistant Staphylococcus aureus 452/11 after 18 hrs by two-fold serial microdilution method; type: functional; details: 452/11, 18 h
Staphylococcus aureus [5] = assay: Antimicrobial activity against methicillin-resistant Staphylococcus aureus 456/11 after 18 hrs by two-fold serial microdilution method; type: functional; details: 456/11, 18 h
Staphylococcus aureus [6] = assay: Antimicrobial activity against methicillin-resistant Staphylococcus aureus 514/11 after 18 hrs by two-fold serial microdilution method; type: functional; details: 514/11, 18 h
Staphylococcus aureus [7] = assay: Antimicrobial activity against methicillin-resistant Staphylococcus aureus 522/12 after 18 hrs by two-fold serial microdilution method; type: functional; details: 522/12, 18 h
Staphylococcus aureus [8] = assay: Antimicrobial activity against methicillin-resistant Staphylococcus aureus 573/12 after 18 hrs by two-fold serial microdilution method; type: functional; details: 573/12, 18 h
[9] = tested on: Staphylococcus epidermidis; assay: Antimicrobial activity against methicillin-resistant Staphylococcus epidermidis 461/11 after 18 hrs by two-fold serial microdilution method; type: functional; details: 461/11, 18 h
[10] = tested on: Staphylococcus epidermidis; assay: Antimicrobial activity against methicillin-resistant Staphylococcus epidermidis 489/11 after 18 hrs by two-fold serial microdilution method; type: functional; details: 489/11, 18 h
[11] = Antiproliferative activity against human vincristine-resistant HL60/Vinc cells assessed as growth inhibition after 72 hrs by MTT assay; type: functional; details: Homo sapiens, HL60/vinc, 72 h
LoVo [12] = assay: Antiproliferative activity against human LoVo cells assessed as growth inhibition after 72 hrs by SRB method; type: functional, cell-based; details: Homo sapiens, LoVo, 72 h
[13] = Antiproliferative activity against human doxorubicin-resistant LoVo/DX cells assessed as growth inhibition after 72 hrs by SRB method; type: functional, cell-based
HT-29 [14] = assay: Antiproliferative activity against human HT-29 cells assessed as growth inhibition after 72 hrs by SRB method; type: functional, cell-based; details: Homo sapiens, HT-29, 72 h
[15] = Antiproliferative activity against human SW707 cells assessed as growth inhibition after 72 hrs by SRB method; type: functional, cell-based; details: Homo sapiens, SW707, 72 h
BALB/3T3 = assay: Antiproliferative activity against mouse BALB/3T3 cells assessed as growth inhibition after 72 hrs by SRB method; type: cell-based; details: BALB/3T3, 72 h
[16] = Antiproliferative activity against human HL60 cells assessed as growth inhibition after 72 hrs by MTT assay; type: functional, cell-based; details: HL-60, 72 h
[17] = Antiproliferative activity against human LS180 cells assessed as growth inhibition after 72 hrs by SRB method; type: functional, cell-based; details: Homo sapiens, LS180, 72 h
HL-60 [18] = assay: Selectivity index, ratio of IC50 for mouse BALB/3T3 cells to IC50 for human HL60 cells; type: functional
[19] = Selectivity index, ratio of IC50 for mouse BALB/3T3 cells to IC50 for human HL60/Vinc cells; type: functional
LoVo [20] = assay: Selectivity index, ratio of IC50 for mouse BALB/3T3 cells to IC50 for human LoVo cells; type: functional
[21] = Selectivity index, ratio of IC50 for mouse BALB/3T3 cells to IC50 for human LoVo/DX cells; type: functional
HT-29 [22] = assay: Selectivity index, ratio of IC50 for mouse BALB/3T3 cells to IC50 for human HT-29 cells; type: functional
[23] = Selectivity index, ratio of IC50 for mouse BALB/3T3 cells to IC50 for human LS180 cells; type: functional
[24] = Selectivity index, ratio of IC50 for mouse BALB/3T3 cells to IC50 for human SW707 cells; type: functional
HL-60 [25] = assay: Resistance index, ratio of IC50 for human HL60/Vinc cells to IC50 for human HL60 cells
LoVo [26] = assay: Resistance index, ratio of IC50 for human LoVo/DX cells to IC50 for human LoVo cells
Staphylococcus aureus [27] = assay: Antimicrobial activity against Staphylococcus aureus ATCC 25923 after 18 hrs by two-fold serial microdilution method; type: functional; details: ATCC 25923, 18 h
Staphylococcus aureus [28] = assay: Antimicrobial activity against Staphylococcus aureus ATCC 29213 after 18 hrs by two-fold serial microdilution method; type: functional; details: ATCC 29213, 18 h
[29] = tested on: Staphylococcus epidermidis; assay: Antimicrobial activity against Staphylococcus epidermidis ATCC 35984 after 18 hrs by two-fold serial microdilution method; type: functional; details: ATCC 35984, 18 h
Staphylococcus aureus [30] = assay: Antimicrobial activity against methicillin-resistant Staphylococcus aureus 462/11 after 18 hrs by two-fold serial microdilution method; type: functional; details: 462/11, 18 h
Staphylococcus aureus [31] = assay: Antimicrobial activity against methicillin-resistant Staphylococcus aureus 537/12 after 18 hrs by two-fold serial microdilution method; type: functional; details: 537/12, 18 h
Staphylococcus aureus [32] = assay: Antimicrobial activity against methicillin-resistant Staphylococcus aureus 572/12 after 18 hrs by two-fold serial microdilution method; type: functional; details: 572/12, 18 h
Staphylococcus aureus [33] = assay: Antimicrobial activity against methicillin-resistant Staphylococcus aureus 585/12 after 18 hrs by two-fold serial microdilution method; type: functional; details: 585/12, 18 h
Staphylococcus aureus [34] = assay: Antimicrobial activity against methicillin-resistant Staphylococcus aureus 586/12 after 18 hrs by two-fold serial microdilution method; type: functional; details: 586/12, 18 h
[35] = tested on: Staphylococcus epidermidis; assay: Antimicrobial activity against methicillin-resistant Staphylococcus epidermidis 459/11 after 18 hrs by two-fold serial microdilution method; type: functional; details: 459/11, 18 h
[36] = tested on: Staphylococcus epidermidis; assay: Antimicrobial activity against methicillin-resistant Staphylococcus epidermidis 460/11 after 18 hrs by two-fold serial microdilution method; type: functional; details: 460/11, 18 h
[37] = tested on: Staphylococcus epidermidis; assay: Antimicrobial activity against methicillin-resistant Staphylococcus epidermidis 466/11 after 18 hrs by two-fold serial microdilution method; type: functional; details: 466/11, 18 h
[38] = tested on: Staphylococcus epidermidis; assay: Antimicrobial activity against methicillin-resistant Staphylococcus epidermidis 467/11 after 18 hrs by two-fold serial microdilution method; type: functional; details: 467/11, 18 h
[39] = tested on: Staphylococcus epidermidis; assay: Antimicrobial activity against methicillin-resistant Staphylococcus epidermidis 468/11 after 18 hrs by two-fold serial microdilution method; type: functional; details: 468/11, 18 h
[40] = tested on: Staphylococcus epidermidis; assay: Antimicrobial activity against methicillin-resistant Staphylococcus epidermidis 469/11 after 18 hrs by two-fold serial microdilution method; type: functional; details: 469/11, 18 h
[41] = tested on: Staphylococcus epidermidis; assay: Antimicrobial activity against methicillin-resistant Staphylococcus epidermidis 470/11 after 18 hrs by two-fold serial microdilution method; type: functional; details: 470/11, 18 h
[42] = tested on: Staphylococcus epidermidis; assay: Antimicrobial activity against methicillin-resistant Staphylococcus epidermidis 488/11 after 18 hrs by two-fold serial microdilution method; type: functional; details: 488/11, 18 h

Structure (SMILES): O=C(O)c1cn(C2CC2)c2cc(N3CCNCC3)c(F)cc2c1=O [CIPROFLOXACIN]
MIC (Staphylococcus aureus [1]): 0.76 µM (≈ 252 ng/mL) | MIC (Staphylococcus aureus [2]): 0.76 µM (≈ 252 ng/mL) | MIC [3]: 0.76 µM (≈ 252 ng/mL) | MIC (Staphylococcus aureus [4]): 96.7 µM (≈ 32000 ng/mL) | MIC (Staphylococcus aureus [5]): 96.7 µM (≈ 32000 ng/mL) | MIC (Staphylococcus aureus [6]): 96.7 µM (≈ 32000 ng/mL) | MIC (Staphylococcus aureus [7]): 96.7 µM (≈ 32000 ng/mL) | MIC (Staphylococcus aureus [8]): 96.7 µM (≈ 32000 ng/mL) | MIC [9]: 0.76 µM (≈ 252 ng/mL) | MIC [10]: 0.76 µM (≈ 252 ng/mL)

pIC50 (LoVo [12]): 6.82 | pIC50 (HT-29 [14]): 6.05
Structure (SMILES): COc1cccc2c1C(=O)c1c(O)c3c(c(O)c1C2=O)C[C@@](O)(C(=O)CO)C[C@@H]3O[C@H]1C[C@H](N)[C@H](O)[C@H](C)O1 [DOXORUBICIN]
pIC50 [11]: 6.06 | pIC50 [13]: 5.26 | pIC50 [15]: 6.74 | pIC50 (BALB/3T3): 6.74

Structure (SMILES): O=c1[nH]c(=O)n([C@H]2C[C@H](O)[C@@H](CO)O2)cc1F [FLOXURIDINE]
pIC50 [16]: 6.62 | pIC50 [11]: 4.76 | pIC50 (LoVo [12]): 4.72 | pIC50 [13]: 4.78 | pIC50 (HT-29 [14]): 3.94 | pIC50 [17]: 3.85 | pIC50 [15]: 4.62 | pIC50 (BALB/3T3): 4.62 | Selectivity Index (HL-60 [18]): 99.58 | Selectivity Index [19]: 1.37 | Selectivity Index (LoVo [20]): 1.25 | Selectivity Index [21]: 1.43 | Selectivity Index (HT-29 [22]): 0.21 | Selectivity Index [23]: 0.17 | Selectivity Index [24]: 1 | Ratio IC50 (HL-60 [25]): 72.5 | Ratio IC50 (LoVo [26]): 0.87 | MIC (Staphylococcus aureus [1]): ≤ 0.016 µM | MIC (Staphylococcus aureus [27]): ≤ 0.016 µM | MIC (Staphylococcus aureus [2]): ≤ 0.016 µM | MIC (Staphylococcus aureus [28]): ≤ 0.016 µM | MIC [3]: ≤ 0.016 µM | MIC [29]: ≤ 0.016 µM | MIC (Staphylococcus aureus [4]): ≤ 0.016 µM | MIC (Staphylococcus aureus [5]): ≤ 0.016 µM | MIC (Staphylococcus aureus [30]): ≤ 0.016 µM | MIC (Staphylococcus aureus [6]): ≤ 0.016 µM | MIC (Staphylococcus aureus [7]): ≤ 0.016 µM | MIC (Staphylococcus aureus [31]): ≤ 0.016 µM | MIC (Staphylococcus aureus [32]): ≤ 0.016 µM | MIC (Staphylococcus aureus [8]): ≤ 0.016 µM | MIC (Staphylococcus aureus [33]): ≤ 0.016 µM | MIC (Staphylococcus aureus [34]): ≤ 0.016 µM | MIC [35]: ≤ 0.016 µM | MIC [36]: ≤ 0.016 µM | MIC [9]: ≤ 0.016 µM | MIC [37]: ≤ 0.016 µM | MIC [38]: ≤ 0.016 µM | MIC [39]: ≤ 0.016 µM | MIC [40]: ≤ 0.016 µM | MIC [41]: ≤ 0.016 µM | MIC [42]: ≤ 0.016 µM | MIC [10]: ≤ 0.016 µM
